In the assay the target is β-Secretase (human, recombinant) (Homo sapiens, UniProt P56817). Nature of the assay: β-Secretase inhibitory activity assay (fluorescent substrate, HPLC peak area of degradative fragment). Format: biochemical. The conditions noted are these: inhibitor 2 μg/ml; for Peak area ± S.D.: mean ± S.D. of triplicates. On the procedure: β-Secretase (human, recombinant), A fluorescent substrate [MOCAc-[…](Dnp) Arg-Arg-NH2] and a β-secretase inhibitor[[…]Sta-Val-Ala-Glu-Phe(Sta:(3S,4S)-4-amino-3-hydroxy-6-methylheptanoic acid)] Other reagents used in this study were analytical grade. Sesamin-sesamolin in different ratios prepared as per examples 10.
Sequence of β-Secretase (human, recombinant) (P56817 46-501): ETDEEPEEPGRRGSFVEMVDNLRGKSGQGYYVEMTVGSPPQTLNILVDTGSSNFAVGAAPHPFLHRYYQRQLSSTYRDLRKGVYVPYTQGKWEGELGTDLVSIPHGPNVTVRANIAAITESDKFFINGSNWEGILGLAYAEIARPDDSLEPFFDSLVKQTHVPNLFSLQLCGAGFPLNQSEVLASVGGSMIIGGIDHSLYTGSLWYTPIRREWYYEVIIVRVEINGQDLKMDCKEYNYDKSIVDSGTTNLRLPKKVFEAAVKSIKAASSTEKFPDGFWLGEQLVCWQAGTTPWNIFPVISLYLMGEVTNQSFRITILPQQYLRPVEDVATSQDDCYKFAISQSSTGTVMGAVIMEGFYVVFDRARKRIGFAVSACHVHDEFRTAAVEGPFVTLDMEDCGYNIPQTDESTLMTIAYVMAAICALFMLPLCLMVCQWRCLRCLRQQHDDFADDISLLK
(§1) Samples in a dimethylsulfoxide solution (2 μl), at an appropriate concentration, were diluted with 78 μl of assay buffer (20 mM acetate buffer, pH=4.5 containing 1% triton X-100) in a 96-well microplate. 10 μl of β-secretase solution in assay buffer (17.4 μg protein/ml) was added to the diluted solution, and incubated at 37° C. for 20 min. After incubation, 10 μl of substrate solution with assay buffer (0.1 mM) was added and incubated at 37° C. for 2 h. Fifty μl of reaction solution was then added to 450 μl of 2.5 M sodium acetate solution to terminate the reaction. The diluted solution was analyzed by HPLC applying the conditions listed below. Column: L-column ODS (Chemicals Evaluation and Research Institute, Tokyo, Japan, 4.6 i.d.×250 mm), mobile phase; 0.1% (v/v) formic acid/acetonitrile (0.1% (v/v) formic acid); 0 min (9:1), 17.5 min (5.5:4.5), 17.6 min (0.5:9.5), 22.5 min (0.5:9.5), column temperature: 40° C., flow rate; 1 ml/min, detection; fluorescent of excitation at 325 nm and emission at 395 nm, injection volume; 20 μl. The peak area of the peak derived from the degradative fluorescent fragment (retention time 15.7 min) was integrated and the peak area was found. The inhibitory activity of the sample was calculated using the following equation.
Inhibition (%)=100−[(Peak area from sample group)/(Peak area from control group)×100]
β-Secretase (human, recombinant). A fluorescent substrate [MOCAc-[…](Dnp) Arg-Arg-NH2] and a β-secretase inhibitor[[…]Sta-Val-Ala-Glu-Phe(Sta:(3S,4S)-4-amino-3-hydroxy-6-methylheptanoic acid)]. Other reagents used in this study were analytical grade. Essential oil of turmeric (EOT) with different percentage of α-turmerone prepared as per examples 2.
as §1, with “temperature;” for “temperature:”
β-Secretase (human, recombinant), A fluorescent substrate [MOCAc-[…](Dnp) Arg-Arg-NH2] and a β-secretase inhibitor[[…]Sta-Val-Ala-Glu-Phe(Sta:(3S,4S)-4-amino-3-hydroxy-6-methylheptanoic acid)]. Other reagents used in this study were analytical grade.
Samples in a dimethylsulfoxide solution (2 μl), at an appropriate concentration, were diluted with […] of assay buffer (20 mM acetate buffer, pH=4.5 containing 1% triton X-100) in a 96-well microplate. 10 μl of β-secretase solution in assay buffer (17.4 μg protein/ml) was added to the diluted solution, and incubated at 37° C. for 20 min.

Non-standard residues stand in square brackets, D forms with d. No end group written: not given here. Sta = CC(C)C[C@H](N)[C@@H](O)CC(=O)O

KTEEISEVN[Sta]VAEF [Inhibitor]: the “Inhibition (%)” value (Example 17) stood at 47.33%; the “Inhibition (%)” value (Example 18) came out at 45.67%; the “Inhibition (%)” value (Example 19) is listed as 48.31%; the “Inhibition (%)” value (Example 20) was 48.8%; the “Inhibition (%)” value (Example 22) was 45.77%. Moreover, the “Peak area ± S.D.” value worked out at 2256512 ± 24323 (Example 17); 2386115 ± 25498 (Example 18); 2418426 ± 23621 (Example 19); 2299129 ± 25842 (Example 20); 2385632 ± 27453 (Example 22).

For the origin of these results see patent publication US20190255138A1, “A NATURAL COMPOSITION TO INHIBIT BETA-SECRETASE AND ENHANCE BIOAVAILABILITY COMPRISING OF TURMERIC AND SESAME SEED EXTRACT” (priority 2016, published 2019).
